Assay results taken from patent publication US20070021405A1, “ARYL- AND HETEROARYLPIPERIDINECARBOXYLATE-DERIVATIVES METHODS FOR THEIR PREPARATION AND USE THEREOF AS FATTY ACID AMIDO HYDROLASE ENZYME INHIBITORS” (SANOFI-AVENTIS, priority 2004, published 2007).

molecular target: T1, enzyme FAAH (Fatty Acid Amido Hydrolase) (Mus musculus, UniProt O08914); assay: radioenzymatic test of FAAH inhibition: hydrolysis of ((1-3H)ethanolamine)-anandamide by mouse brain membrane homogenates; type: biochemical; conditions: mouse brain membrane homogenate, 10 μM anandamide, 15 minutes at 25° C.; read-out: IC50 (concentration which inhibits the control enzymatic activity of FAAH by 50%)
T1 construct: The membrane homogenates are prepared at the time of use by homogenization of the tissues; from tissue; host or cells: mouse brain (minus the cerebellum), membrane homogenate
T1 sequence (O08914 1-579): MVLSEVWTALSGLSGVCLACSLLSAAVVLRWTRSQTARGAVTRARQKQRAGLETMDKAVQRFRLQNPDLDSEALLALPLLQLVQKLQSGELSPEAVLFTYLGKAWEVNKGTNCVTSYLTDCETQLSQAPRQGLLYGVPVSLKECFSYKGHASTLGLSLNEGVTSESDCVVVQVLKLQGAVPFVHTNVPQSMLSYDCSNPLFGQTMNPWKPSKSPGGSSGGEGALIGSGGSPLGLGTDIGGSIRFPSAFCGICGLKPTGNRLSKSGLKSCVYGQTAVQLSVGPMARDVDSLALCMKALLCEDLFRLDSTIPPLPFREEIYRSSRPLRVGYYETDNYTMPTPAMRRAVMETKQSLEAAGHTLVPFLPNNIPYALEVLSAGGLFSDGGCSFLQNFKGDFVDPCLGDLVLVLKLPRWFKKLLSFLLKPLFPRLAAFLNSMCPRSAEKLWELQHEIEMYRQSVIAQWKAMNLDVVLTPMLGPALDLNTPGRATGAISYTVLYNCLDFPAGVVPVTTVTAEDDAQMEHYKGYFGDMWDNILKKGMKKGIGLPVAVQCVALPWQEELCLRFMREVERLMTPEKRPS
Procedure: The compounds of the invention have formed the subject of pharmacological trials which make it possible to determine their inhibitory effect on the enzyme FAAH (Fatty Acid Amido Hydrolase).
Thus, mouse brains (minus the cerebellum) are removed and stored at −80° C. The membrane homogenates are prepared at the time of use by homogenization of the tissues with a Polytron in a 10 mM Tris-HCl buffer (pH 8.0) comprising 150 mM NaCl and 1 mM EDTA. The enzymatic reaction is subsequently carried out in 70 μl of buffer comprising bovine serum albumin free from fatty acids (1 mg/ml). The test compounds, at various concentrations, the ((1-^3H)ethanolamine)-anandamide (specific activity of 15-20 Ci/mmol), diluted to 10 μM with non-radiolabelled anandamide, and the membrane preparation (400 μg of frozen tissue per assay) are successively added. After 15 minutes at 25° C., the enzymatic reaction is halted by addition of 140 μl of chloroform/methanol (2:1). The mixture is stirred for 10 minutes and is then centrifuged at 3500 g for 15 minutes. An aliquot (30 μl) of the aqueous phase comprising the (1-^3H)ethanolamine is counted by liquid scintillation.

IC50	SMILES
95 nM	CCOc1ccc(-c2ccc(C3(O)CCN(C(=O)OCC(=O)NC)CC3)cc2)cc1 [compound 39, 2-(methylamino)-2-oxoethyl 4-(4′-ethoxybiphenyl-4-yl)-4-hydroxypiperidine-1-carboxylate]
98 nM	CNC(=O)COC(=O)N1CCC(O)(c2ccc(-c3ccc(Cl)c(Cl)c3)cc2)CC1 [Compound No. 40, 2-(Methylamino)-2-oxoethyl 4-(3′,4′-dichlorobiphenyl-4-yl)-4-hydroxypiperidine-1-carboxylate]

tested on: male OF1 mice; assay: test for analgesia: abdominal tractions induced by PBQ (phenylbenzoquinone) i.p.; type: in vivo, mouse; conditions: 3 mg/kg p.o., administered 60 minutes before PBQ
Procedure: The in vivo activity of the compounds of the invention was evaluated in a test for analgesia.
Thus, the intraperitoneal (i.p.) administration of PBQ (phenylbenzoquinone, 2 mg/kg in a 0.9% sodium chloride solution comprising 5% of ethanol) to male OF1 mice weighing 25 to 30 g causes abdominal tractions, on average 30 twisting or contracting motions during the period from 5 to 15 minutes after injection. The test compounds are administered, orally (p.o.) or intraperitoneally (i.p.) in suspension in 0.5% Tween 80, 60 minutes or 120 minutes before the administration of PBQ. Under these conditions, the most powerful compounds of the invention reduce by 35 to 70% the number of tractions induced by the PBQ, within a range of doses of between 1 and 30 mg/kg.

SMILES	reduction of the number of tractions induced by the PBQ
CNC(=O)COC(=O)N1CCC(CCc2ccc(Cl)cc2)CC1 [compound 57, 2-(methylamino)-2-oxoethyl 4-[2-(4-chloro-phenyl)ethyl]piperidine-1-carboxylate]	37%

same assay, conditions: 3 mg/kg p.o., administered 120 minutes before PBQ

SMILES	reduction of the number of tractions induced by the PBQ
CNC(=O)COC(=O)N1CCC(CCc2ccc(Cl)cc2)CC1 [compound 57, 2-(methylamino)-2-oxoethyl 4-[2-(4-chloro-phenyl)ethyl]piperidine-1-carboxylate]	74%

tested on: not given; assay: not given; conditions: not given

SMILES	melting point
CNC(=O)COC(=O)N1CCC(Cc2ccc3ccccc3c2)CC1 [Compound No. 43, 2-(Methylamino)-2-oxoethyl 4-(naphth-2-ylmethyl)piperidine-1-carboxylate]	150 to 152 °C
CNC(=O)COC(=O)N1CCC(n2cnc(-c3ccccc3)c2)CC1 [Compound No. 14, 2-(Methylamino)-2-oxoethyl 4-(4-phenyl-1H-imidazol-1-yl)piperidine-1-carboxylate]	192 to 194 °C
CNC(=O)COC(=O)N1CCC(O)(c2ccc(-c3ccc(Cl)c(Cl)c3)cc2)CC1 [Compound No. 40, 2-(Methylamino)-2-oxoethyl 4-(3′,4′-dichlorobiphenyl-4-yl)-4-hydroxypiperidine-1-carboxylate]	156 to 158 °C
CNC(=O)COC(=O)N1CCC(CCc2nccc3ccccc23)CC1 [Compound No. 74, 2-(Methylamino)-2-oxoethyl 4-(2-(isoquinolin-1-yl)ethyl)-1-piperidinecarboxylate]	126 to 128 °C
CNC(=O)COC(=O)N1CCC(O)(c2ccc(Br)cc2)CC1 [Compound No. 32, 2-(Methylamino)-2-oxoethyl 4-(4-bromophenyl)-4-hydroxypiperidine-1-carboxylate]	57 to 60 °C

The next lines start with the values.

melting point	SMILES
158 to 159 °C	NC(=O)COC(=O)N1CCC(Cn2ccc3ccccc32)CC1 [compound 47, 2-amino-2-oxoethyl 4-(1H-indol-1-ylmethyl)piperidine-1-carboxylate]
101 to 103 °C	CNC(=O)COC(=O)N1CCC(CC#Cc2ccc(Cl)cc2)CC1 [Compound No. 107, 2-(Methylamino)-2-oxoethyl 4-[3-(4-chlorophenyl)prop-2-yn-1-yl]piperidine-1-carboxylate]
118 to 120 °C	CNC(=O)COC(=O)N1CCC(CCCc2ccc(Cl)cc2)CC1 [Compound No. 83, 2-(Methylamino)-2-oxoethyl 4-[3-(4-chlorophenyl)propyl]piperidine-1-carboxylate]
